Test: Long-term stability in spiked pooled human plasma

SMILES | Long-term stability, 1 month, -20°C Accuracy [%] (validation standard 2xLLOV) | Long-term stability, 1 month, -80°C Accuracy [%] (validation standard 2xLLOV) | Long-term stability, 2 month, -80°C Accuracy [%] (validation standard 2xLLOV) | Long-term stability, 3 month, -20°C Accuracy [%] (validation standard 2xLLOV) | Long-term stability, 3 month, -80°C Accuracy [%] (validation standard 2xLLOV) | Long-term stability, 6 weeks, 4°C, without daylight Accuracy [%] (validation standard 2xLLOV) | Long-term stability, 1 month, -20°C Accuracy [%] (validation standard LLOV) | Long-term stability, 1 month, -80°C Accuracy [%] (validation standard LLOV) | Long-term stability, 2 month, -20°C Accuracy [%] (validation standard LLOV) | Long-term stability, 2 month, -80°C Accuracy [%] (validation standard LLOV) | Long-term stability, 3 month, -20°C Accuracy [%] (validation standard LLOV) | Long-term stability, 3 month, -80°C Accuracy [%] (validation standard LLOV) | Long-term stability, 6 weeks, 4°C, without daylight Accuracy [%] (validation standard LLOV) | Long-term stability, 1 month, -20°C Accuracy [%] (validation standard MOV) | Long-term stability, 1 month, -80°C Accuracy [%] (validation standard MOV) | Long-term stability, 2 month, -20°C Accuracy [%] (validation standard MOV) | Long-term stability, 2 month, -80°C Accuracy [%] (validation standard MOV) | Long-term stability, 3 month, -20°C Accuracy [%] (validation standard MOV) | Long-term stability, 3 month, -80°C Accuracy [%] (validation standard MOV) | Long-term stability, 6 weeks, 4°C, without daylight Accuracy [%] (validation standard MOV) | also measured
COc1cc2nccc(Oc3ccc(NC(=O)C4(C(=O)Nc5ccc(F)cc5)CC4)cc3)c2cc1OC [Cabozantinib] | 98.4% | 92.5% | 100.3% | 92.5% | 94.6% | 96.8% | 91.9% | 89.4% | 97.7% | 100.2% | 90.4% | 91.8% | 94.1% | 97.7% | 97.3% | 101.6% | 102.9% | 100.0% | 98.9% | 108.5% | Long-term stability, 1 month, -20°C Accuracy [%] (validation standard ULOV): 95.7%; Long-term stability, 1 month, -80°C Accuracy [%] (validation standard ULOV): 93.1%; Long-term stability, 2 month, -20°C Accuracy [%] (validation standard ULOV): 99.6%; Long-term stability, 2 month, -80°C Accuracy [%] (validation standard ULOV): 100.3%; Long-term stability, 3 month, -20°C Accuracy [%] (validation standard ULOV): 96.3%; Long-term stability, 3 month, -80°C Accuracy [%] (validation standard ULOV): 93.1%; Long-term stability, 6 weeks, 4°C, without daylight Accuracy [%] (validation standard ULOV): 101.8%
Cc1cc(Nc2ncc(Cl)c(Nc3ccccc3S(=O)(=O)C(C)C)n2)c(OC(C)C)cc1C1CCNCC1 [Ceritinib] | 94.3% | 89.5% | 96.4% | 91.8% | 93.4% | 77.8% | 101.5% | 96.1% | 99.7% | 103.7% | 96.9% | 100.3% | 78.9% | 93.3% | 93.7% | 94.6% | 95.5% | 94.1% | 95.7% | 104.9% | Long-term stability, 2 month, -20°C Accuracy [%] (validation standard 2xLLOV): 94.4%; Long-term stability, 1 month, -20°C Accuracy [%] (validation standard ULOV): 97.3%; Long-term stability, 1 month, -80°C Accuracy [%] (validation standard ULOV): 94.0%; Long-term stability, 2 month, -20°C Accuracy [%] (validation standard ULOV): 99.1%; Long-term stability, 2 month, -80°C Accuracy [%] (validation standard ULOV): 100.5%; Long-term stability, 3 month, -20°C Accuracy [%] (validation standard ULOV): 101.8%; Long-term stability, 3 month, -80°C Accuracy [%] (validation standard ULOV): 100.0%; Long-term stability, 6 weeks, 4°C, without daylight Accuracy [%] (validation standard ULOV): 97.9%
O=C(c1ccc(F)c(F)c1Nc1ccc(I)cc1F)N1CC(O)([C@@H]2CCCCN2)C1 [Cobimetinib] | 100.8% | 93.9% | 103.4% | 99.0% | 97.6% | 94.8% | 101.1% | 99.0% | 99.0% | 97.9% | 101.3% | 100.3% | 94.5% | 98.9% | 96.8% | 100.8% | 103.3% | 99.2% | 98.4% | 108.3% | Long-term stability, 2 month, -20°C Accuracy [%] (validation standard 2xLLOV): 98.0%; Long-term stability, 1 month, -20°C Accuracy [%] (validation standard ULOV): 100.6%; Long-term stability, 1 month, -80°C Accuracy [%] (validation standard ULOV): 97.3%; Long-term stability, 2 month, -20°C Accuracy [%] (validation standard ULOV): 104.5%; Long-term stability, 2 month, -80°C Accuracy [%] (validation standard ULOV): 103.6%; Long-term stability, 3 month, -20°C Accuracy [%] (validation standard ULOV): 100.6%; Long-term stability, 3 month, -80°C Accuracy [%] (validation standard ULOV): 98.3%; Long-term stability, 6 weeks, 4°C, without daylight Accuracy [%] (validation standard ULOV): 102.4%
C[C@@H](Oc1cc(-c2cnn(C3CCNCC3)c2)cnc1N)c1c(Cl)ccc(F)c1Cl [Crizotinib] | 87.5% | 85.4% | 93.8% | 87.5% | 90.2% | 68.4% | 77.1% | 75.4% | 74.2% | 78.9% | 72.6% | 73.9% | 58.2% | 90.2% | 89.3% | 96.3% | 96.2% | 94.9% | 95.1% | 93.4% | Long-term stability, 2 month, -20°C Accuracy [%] (validation standard 2xLLOV): 90.8%; Long-term stability, 1 month, -20°C Accuracy [%] (validation standard ULOV): 84.4%; Long-term stability, 1 month, -80°C Accuracy [%] (validation standard ULOV): 80.1%; Long-term stability, 2 month, -20°C Accuracy [%] (validation standard ULOV): 88.8%; Long-term stability, 2 month, -80°C Accuracy [%] (validation standard ULOV): 89.2%; Long-term stability, 3 month, -20°C Accuracy [%] (validation standard ULOV): 88.4%; Long-term stability, 3 month, -80°C Accuracy [%] (validation standard ULOV): 89.7%; Long-term stability, 6 weeks, 4°C, without daylight Accuracy [%] (validation standard ULOV): 83.8%
CC(C)(C)c1nc(-c2cccc(NS(=O)(=O)c3c(F)cccc3F)c2F)c(-c2ccnc(N)n2)s1 [Dabrafenib] | 101.2% | 93.1% | 101.3% | 96.6% | 101.7% | 107.2% | 101.0% | 96.1% | 99.0% | 97.9% | 97.1% | 96.6% | 102.4% | 96.1% | 92.3% | 97.8% | 98.9% | 100.3% | 98.0% | 107.2% | Long-term stability, 2 month, -20°C Accuracy [%] (validation standard 2xLLOV): 98.6%; Long-term stability, 1 month, -20°C Accuracy [%] (validation standard ULOV): 97.0%; Long-term stability, 1 month, -80°C Accuracy [%] (validation standard ULOV): 92.2%; Long-term stability, 2 month, -20°C Accuracy [%] (validation standard ULOV): 97.4%; Long-term stability, 2 month, -80°C Accuracy [%] (validation standard ULOV): 98.0%; Long-term stability, 3 month, -20°C Accuracy [%] (validation standard ULOV): 96.3%; Long-term stability, 3 month, -80°C Accuracy [%] (validation standard ULOV): 98.6%; Long-term stability, 6 weeks, 4°C, without daylight Accuracy [%] (validation standard ULOV): 100.6%
Cc1nc(Nc2ncc(C(=O)Nc3c(C)cccc3Cl)s2)cc(N2CCN(CCO)CC2)n1 [Dasatinib] | 99.2% | 92.5% | 96.3% | 102.0% | 99.1% | 72.6% | 108.6% | 89.0% | 82.2% | 84.9% | 81.3% | 85.5% | 79.4% | 97.7% | 91.3% | 92.8% | 92.3% | 102.9% | 101.1% | 102.3% | Long-term stability, 2 month, -20°C Accuracy [%] (validation standard 2xLLOV): 98.2%; Long-term stability, 1 month, -20°C Accuracy [%] (validation standard ULOV): 97.7%; Long-term stability, 1 month, -80°C Accuracy [%] (validation standard ULOV): 93.4%; Long-term stability, 2 month, -20°C Accuracy [%] (validation standard ULOV): 95.6%; Long-term stability, 2 month, -80°C Accuracy [%] (validation standard ULOV): 100.4%; Long-term stability, 3 month, -20°C Accuracy [%] (validation standard ULOV): 104.5%; Long-term stability, 3 month, -80°C Accuracy [%] (validation standard ULOV): 105.8%; Long-term stability, 6 weeks, 4°C, without daylight Accuracy [%] (validation standard ULOV): 97.9%

Source: publication PMC8699473, “An Easily Expandable Multi-Drug LC-MS Assay for the Simultaneous Quantification of 57 Oral Antitumor Drugs in Human Plasma” (Cancers, 2021)
